# Patent US10954231B2, “Anxiolytic compounds” (Bionomics Limited, priority 2006, dated 2021)
# Columns and labels:
# Assay type in all cases: in vivo
# mice [1] = assay: Light dark test; details: oral, 60 min before test; for LD: significant anxiolytic effect (number of significant parameters): parameters: time spent in lit area, transitions into lit area, total walked distance in lit area; for minimal effective dose at 20 mg/kg: Mus musculus, 1 h, for examples marked * 20 mg/kg is the only dose tested, read-out: LD: minimum effective dose
# Source text: The light dark paradigm is based on a conflict between the innate aversion of rodents to brightly illuminated areas and on the spontaneous exploratory behaviour of the mice. If given a choice between a large brightly compartment versus a small dark compartment they spontaneously prefer the dark part.
# The apparatus consists of two PVC (polyvinylchloride) boxes (19×19×15 cm) covered with Plexiglas. One of these boxes is darkened. The other box is illuminated by 100 W desk lamp placed 15 cm above and providing an illumination of about 4400 Lux. An opaque plastic tunnel (5×7×10 cm) separates the dark box from the illuminated one.
# Animals were placed individually in the lit box, with head directed towards the tunnel. The time spent in the lit box and the number of transitions between the two boxes was recorded over a 5 min period after the first entry of the animal in the dark box. The total walked distance in the lit box was also recorded. Animals scored without entry into the […] were excluded from the analysis.
# The compounds in Table 1 were tested in the light-dark test (indicated in the LD column). +=a significant anxiolytic effect in one of the three parameters measured in the LD model, ++ represents a significant effect in 2 parameters and +++ is significance in all three. The parameters are: time spent in the lit area, number of transitions into the lit area, or total walked distance in the lit area.
# The test compound was prepared in 5% PEG400-0.9% NaCl.
# (§1) It was administrated orally, 60 minutes before the implementation of the test.
# mice [2] = assay: Open field (dark), spontaneous motor activity; set-up: key to OF: sedation: NS: no sedation; S: sedation; details: oral, 60 min before test; for OF: sedation: 20 min recording; for OF: maximum non-sedating dose: for examples marked * 20 mg/kg is the only dose tested
# Source text: The open field (dark) is used to measure the spontaneous motor activity of mice in a quiet, dark environment. This system is useful for discriminating the sedating or stimulating properties of test compounds on spontaneous locomotion and can thus provide a preliminary indication of potentially adverse effects such as sedation.
# The apparatus is an open plexiglass cage (52×52 cm) with 40 cm walls. The animal's movements are tracked by a computerised video tracking system, consisting of an overhead camera, diode sensors placed underneath the floor of the cage, computer and video analyser software (ViewPoint, France). The video camera is placed at 2.50 m above the cage and connected to the computer via a video capture card (Pinnacle Systems, France). The video tracking system is set in a way that the floor of the OF is divided into nine equal squares. The total number of crossed squares and the total walked distance are recorded.
# Each animal is singly placed in a corner of the apparatus and its locomotor activity is automatically recorded over a period of 20 minutes.
# The apparatus is cleaned between each animal with alcohol (70%).
# The below items were tested in the Open Field as indicated by an entry in the OF column. NS=no sedation; S=sedation. The maximum non-sedating dose in mg/kg is shown.
# Test compound was prepared in 5% PEG400−0.9% NaCl. It was administered orally, 60 minutes before the implementation of the test.
# rat = assay: Elevated plus maze; set-up: key to EPM rat: significant anxiolytic effect (number of significant parameters): +: a significant anxiolytic effect in one of the three parameters measured in the LD model; ++: represents a significant effect in 2 parameters; +++: is significance in all three; details: oral, 60 min before test
# mice [3] = assay: Marble burying test; details: oral, 60 min before test, 20 min session
# Source text: The Marble Burying test is used as a model for both anxiety and obsessive compulsive disorders. Mice have a natural tendency to bury marbles under the bedding when placed in a cage with rows of evenly spaced marbles on the floor. Suppression of this spontaneous burying has been used as a measure of anxiolytic drug action. Mice pre-treated with benzodiazepines and different classes of antidepressants bury less marbles when compared to the control mice
# The apparatus consists of transparent polycarbonate cages (30 cm×18 cm×19 cm) containing a 5 cm layer of fine sawdust bedding and 20 glass marbles (diameter: 1.5 cm) spaced evenly along the walls of the cage. Each animal is placed individually in the cage where it remains for a 20 min test session. On termination of the test session the animals are removed from the cage and the number of marbles at least two-thirds buried in the sawdust is recorded.
# Example 1 was tested in the Marble Burying model. The minimum effective dose in mg/kg is indicated in the MB column in Table 1.
# The test compound was prepared in 5% PEG400−0.9% NaCl.
# as §1
Compound,LD: significant anxiolytic effect (number of significant parameters) (mice [1]),OF: sedation (mice [2]),OF: maximum non-sedating dose (mice [2]) [mg/kg],EPM rat: minimum effective dose (rat) [mg/kg],"EPM rat: significant anxiolytic effect (number of significant parameters) (rat; parameters: time spent in open arms, transitions into open arms, total walked distance in open arms)",MB: minimum effective dose (mice [3]) [mg/kg],minimal effective dose at 20 mg/kg (mice [1]) [mg/kg]
"CCn1cc(C(=O)N2CCOCC2)c(=O)c2cc(NC3Cc4ccccc4C3)cnc21 [Example 1, Morpholino 6-(2,3-dihydro-1H-inden-2-yl)amino-1-ethyl-1,4-dihydro-4-oxo-1,8-naphthyridine-3-carboxamide]",++,NS,100,0.1,+++,1,–
"CCn1cc(C(=O)N2CCOCC2)c(=O)c2nc(NC3Cc4ccccc4C3)ccc21 [Example 2, Morpholino 6-(2,3-dihydro-1H-inden-2-ylamino)-1-ethyl-1,4-dihydro-4-oxo-1,5-naphthyridine-3-carboxamide]",+++,S,5,–,–,–,30
"CCn1cc(C(=O)N2CCOCC2)c(=O)c2cc(NC3Cc4ccccc4C3)ncc21 [Example 3, morpholino 6-(2,3-dihydro-1H-inden-2-ylamino)-1-ethyl-1,4-dihydro-4-oxo-1,7-naphthyridine-3-carboxamide]",++,–,–,–,–,–,–
"CCn1cc(C(=O)N2CCN(C)CC2)c(=O)c2cc(NC3Cc4ccccc4C3)cnc21 [Example 4, Methylpiperazino 6-(2,3-dihydro-1H-inden-2-ylamino)-1-ethyl-1,4-dihydro-4-oxo-1,8-naphthyridine-3-carboxamide]",++,–,–,–,–,–,20
"CCn1cc(C(=O)NC2CC2)c(=O)c2cc(NC3Cc4ccccc4C3)cnc21 [Example 5, Cyclopropylamino 6-(2,3-dihydro-1H-inden-2-ylamino)-1-ethyl-1,4-dihydro-4-oxo-1,8-naphthyridine-3-carboxamide]",+,–,–,–,–,–,20
CCN(CC)C(=O)c1cn(CC)c2ncc(NC3Cc4ccccc4C3)cc2c1=O [Example 6],++,NS,20,–,–,–,20
"CCOC(=O)c1cn(CC)c2ncc(NC(=O)c3cc(OC)c(OC)c(OC)c3)cc2c1=O [Example 7, Ethyl 6-(3,4,5-trimethoxybenzoylamide)-1-ethyl-1,4-dihydro-4-oxo-1,8-naphthyridine-3-carboxylate]",++,S,20,–,–,–,20
CCn1cc(C(=O)Nc2ccc(F)cc2)c(=O)c2cc(NC3Cc4ccccc4C3)cnc21 [Example 8],++,NS,20,–,–,–,20
"CCn1cc(C(=O)Nc2ccc(-c3ccccc3)cc2)c(=O)c2cc(NC3Cc4ccccc4C3)cnc21 [Example 9, 4-biphenylamino-6-(2,3-dihydro-1H-inden-2-ylamino)-1-ethyl-1,4-dihydro-4-oxo-1,8-naphthyridine-3-carboxamide]",+++,NS,20,–,–,–,20
"CCOC(=O)c1cn(CC)c2ncc(NC(=O)C(C)C)cc2c1=O [Example 10, Ethyl 6-(isobutyrylamide)-1-ethyl-1,4-dihydro-4-oxo-1,8-naphthyridine-3-carboxylate]",+++,NS,20,–,–,–,20
